What all share (experiment): Antibacterial activity in vitro, MIC by broth microdilution
Assay [1] relates to H. influenzae Hain_49247. The assay is classed as cell-based, Haemophilus influenzae. The note with it: Table 5, Strain ID M: H. influenzae Hain_49247; unit assumed. Summed up:
(§1)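 Visible-growth inhibition defined the MIC, obtained by NCCLS broth microdilution at 35° C. over 18-24 hours with a final inoculum of 3×10^5–7×10^5 CFU/mL.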

The test system of assay [2] is S. pneumoniae Stpn_Erm S 4297. The assay is classed as cell-based, Streptococcus pneumoniae. To be noted: Table 5, Strain ID J: S. pneumoniae Stpn_Erm S 4297. Summed up:
as §1

In assay [3] the test system is S. pneumoniae Stpn_Mef S 3427. The assay is classed as cell-based, Streptococcus pneumoniae. To be noted: Table 5, Strain ID L: S. pneumoniae Stpn_Mef S 3427; unit assumed. The procedure, abridged: as §1
Assay [4] relates to S. pneumoniae Stpn_280-962 Pen S. The format is cell-based, Streptococcus pneumoniae. To be noted: Table 5, Strain ID H: S. pneumoniae Stpn_280-962. The procedure, abridged: as §1
For assay [5], the system named is S. pneumoniae Stpn_Erm 6849. The assay is classed as cell-based, Streptococcus pneumoniae. To be noted: Table 5, Strain ID I: S. pneumoniae Stpn_Erm 6849; unit assumed. Summed up:
as §1

The test system of assay [6] is S. pneumoniae Stpn_297-749 Pen R. The assay is classed as cell-based, Streptococcus pneumoniae. The note with it: Table 5, Strain ID G: S. pneumoniae Stpn_297-749. Summed up:
as §1

The subject of assay [7] is S. pneumoniae Stpn_49619. The format is cell-based, Streptococcus pneumoniae. To be noted: Table 5, Strain ID F: S. pneumoniae Stpn_49619. Summed up:
as §1

The test system of assay [8] is S. pneumoniae Stpn_Mef 5654. The format is cell-based, Streptococcus pneumoniae. The note with it: Table 5, Strain ID K: S. pneumoniae Stpn_Mef 5654; unit assumed. Summed up: as §1
Assay [9] concerns S. pyogenes Stpy_8668. The format is cell-based. The note with it: Table 5, Strain ID E: S. pyogenes Stpy_8668. The procedure, abridged:
as §1

The subject of assay [10] is E. faecalis Enfa_29212. The assay is classed as cell-based. To be noted: Table 5, Strain ID D: E. faecalis Enfa_29212; unit assumed. The procedure, abridged: as §1
For assay [11], the system named is S. epidermidis Step_14990. The assay is classed as cell-based. To be noted: Table 5, Strain ID B: S. epidermidis Step_14990; unit assumed. Summed up:
as §1

For assay [12], the system named is S. epidermidis Step_f50654 Pen S. The format is cell-based. To be noted: Table 5, Strain ID C: S. epidermidis Step_f50654; unit assumed. The procedure, abridged: as §1
In assay [13] the test system is S. aureus Stau_29213. The assay is classed as cell-based. The note with it: Table 5, Strain ID A: S. aureus Stau_29213; unit assumed. The procedure, abridged:
as §1

Values after ≈ are worked out from the molar mass of the structure shown.

Regarding `CC[C@H]1OC(=O)[C@@](C)(F)C(=O)[C@H](C)[C@@H](OC2O[C@H](C)C[C@H](N(C)C)[C@H]2O)[C@@](C)(OC)C[C@@H](C)C(=O)[C@H](C)[C@H]2N(CCCCn3cnc(-c4ccc(C)nc4)c3)C(=O)O[C@]12CC` (stereo partly drawn) [Example 30, (3aS,4R,7S,9R,10R,11S,13R,15R,15aR)-3a,4-diethyl-7-fluoro-11-methoxy-7,9,11,13,15-pentamethyl-1-{4-[4-(6-methylpyridin-3-yl)-1H-imidazol-1-yl]butyl}-2,6,8,14-tetraoxotetradecahydro-2H-oxacyclotetradecino[4,3-d][1,3]oxazol-10-yl 3,4,6-trideoxy-3-(dimethylamino)-D-xylo-hexopyranoside], the MIC in assay [1] was 6.25 µg/mL (≈ 7.28 µM); in [2] (unit assumed), 0.1 µg/mL (≈ 0.117 µM); in [3], 0.1 µg/mL (≈ 0.117 µM); in [4], “≦0.05”; in assay [5] it was 0.4 µg/mL (≈ 0.466 µM); in [6], “≦0.05”. In addition, the MIC entry in [7] was “≦0.05”; in assay [8], 0.78 µg/mL (≈ 0.909 µM); in [9] it was “≦0.05”; in [10] it was 0.2 µg/mL (≈ 0.233 µM); in [11], 0.2 µg/mL (≈ 0.233 µM); in assay [12] it was 0.4 µg/mL (≈ 0.466 µM). In addition, the MIC in assay [13] is 0.2 µg/mL (≈ 0.233 µM).

For `CC[C@H]1OC(=O)[C@H](C)C(=O)[C@H](C)[C@@H](OC2O[C@H](C)C[C@H](N(C)C)[C@H]2O)[C@@](C)(OC)C[C@@H](C)C(=O)[C@H](C)[C@H]2N(CCCC(C)(C)n3cnc(-c4cccnc4)c3)C(=O)O[C@]12CC` (stereo partly drawn) [Example 31, (3aS,4R,7R,9R,10R,11S,13R,15R,15aR)-3a,4-diethyl-11-methoxy-7,9,11,13,15-pentamethyl-1-[4-methyl-4-(4-pyridin-3-yl-1H-imidazol-1-yl)pentyl]-2,6,8,14-tetraoxotetradecahydro-2H-oxacyclotetradecino[4,3-d][1,3]oxazol-10-yl 3,4,6-trideoxy-3-(dimethylamino)-D-xylo-hexopyranoside], the MIC was 6.25 µg/mL (≈ 7.32 µM) in assay [1]; 0.2 µg/mL (≈ 0.234 µM) in assay [2] (unit assumed); 0.2 µg/mL (≈ 0.234 µM) in [3]; “≦0.05” in assay [4]; 0.4 µg/mL (≈ 0.468 µM) in assay [5]; “≦0.05” in assay [6]. For the same compound, the MIC result in [7] was “≦0.05”; in assay [8], 0.78 µg/mL (≈ 0.913 µM); in assay [9] it was “≦0.05”; in assay [10], 0.2 µg/mL (≈ 0.234 µM); in assay [11], 0.4 µg/mL (≈ 0.468 µM); in assay [12], 0.4 µg/mL (≈ 0.468 µM). Further, in [13], the MIC was 0.2 µg/mL (≈ 0.234 µM).

Regarding `CC[C@H]1OC(=O)[C@@](C)(F)C(=O)[C@H](C)[C@@H](OC2O[C@H](C)C[C@H](N(C)C)[C@H]2O)[C@@](C)(OC)C[C@@H](C)C(=O)[C@H](C)[C@H]2N(CCCC(C)(C)n3cnc(-c4cccnc4)c3)C(=O)O[C@]12CC` (stereo partly drawn) [Example 32, (3aS,4R,7S,9R,10R,11S,13R,15R,15aR)-3a,4-diethyl-7-fluoro-11-methoxy-7,9,11,13,15-pentamethyl-1-[4-methyl-4-(4-pyridin-3-yl-1H-imidazol-1-yl)pentyl]-2,6,8,14-tetraoxotetradecahydro-2H-oxacyclotetradecino [4,3-d][1,3]oxazol-10-yl 3,4,6-trideoxy-3-(dimethylamino)-D-xylo-hexopyranoside], the MIC was 6.25 µg/mL (≈ 7.17 µM) in [1]; “≦0.05” in [2]; 0.2 µg/mL (≈ 0.229 µM) in assay [3]; “≦0.05” in assay [4]; 0.2 µg/mL (≈ 0.229 µM) in assay [5]; “≦0.05” in assay [6]. In addition, the MIC entry in assay [7] was “≦0.05”; in assay [8], 0.78 µg/mL (≈ 0.894 µM); in assay [9], “≦0.05”; in [10] it was 0.02 µg/mL (≈ 0.0229 µM); in [11] it was 0.4 µg/mL (≈ 0.459 µM); in [12], 0.4 µg/mL (≈ 0.459 µM). In assay [13], the MIC stood at 0.2 µg/mL (≈ 0.229 µM).

The values are drawn from US6756359B2, “C12 modified erythromycin macrolides and ketolides having antibacterial activity” (Chiron Corporation, priority 2001, dated 2004).
